# From patent US20240293413A1, “COMPOUND AND METHOD FOR TREATING CHEMOTHERAPY-RELATED GASTROINTESTINAL SIDE EFFECTS” (ONQUALITY PHARMACEUTICALS CHINA LTD., priority 2021, published 2024)
# Experiments:
# Type in all cases: in vivo
# [1] = test system: diarrhea caused by a chemotherapeutic agent in Balb/c mice; experiment: Examples 230-271 (Table 4): oral CDK inhibitor, relief of diarrhea caused by a chemotherapeutic agent; details: Doxorubicin (Dox) intramuscular injection 10 mg/kg single, CDK inhibitor oral 40 mg/kg single, cycle 10 days
# Source text: (§1) Balb/c mice were fed for 1 week, and then divided into groups. The experiment was divided into a control group, a chemotherapeutic agent group, and a CDK inhibitor group, each of which comprised 10 mice, to perform the administration experiment, for which the administration dosage, mode, time and frequency were shown in Table 4. The control group: being intragastrically administered with the same solvent as that used in the CDK inhibitor group (the time was shown in Table 4), and then being injected/intragastrically administered with the same solvent as that used in the chemotherapeutic agent group (the administration mode was shown in Table 4): the chemotherapeutic agent group: being intragastrically administered with the same solvent as that used in the CDK inhibitor group (the time was shown in Table 4), and then being injected/intragastrically administered with the chemotherapeutic agent (the type, administration mode and dosage were shown in Table 4): the CDK inhibitor group: being intragastrically administered with the CDK inhibitor (the time was shown in Table 4), and then being administered with the chemotherapeutic agent (the mode and dosage were shown in Table 4).
# (§2) The diarrhea grading of mice was observed and recorded every day.
# [2] = test system: Chemotherapeutic agent-caused diarrhea models of Balb/c mice; experiment: Examples 1-229 (Table 3): oral CDK inhibitor, relief of diarrhea caused by a chemotherapeutic agent;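 note: percent of treated mice whose diarrhea grade fell below chemotherapy-group average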
# Source text: Construction of mouse animal models: Chemotherapeutic agent-caused diarrhea models of Balb/c mice were constructed according to the administration mode and frequency of the chemotherapeutic agent as shown in Table 3.
# as §1, with “in Table 3. The control” for “in Table 4. The control”, “in Table 3), and then” for “in Table 4), and then”, “in Table 3): the chemotherapeutic” for “in Table 4): the chemotherapeutic”, “in Table 3); the CDK” for “in Table 4): the CDK”, “in Table 3).” for “in Table 4).”
# as §2
# [3] = test system: diarrhea caused by a chemotherapeutic agent in Balb/c mice; experiment: Examples 343-381 (Table 6): oral versus intravenous CDK inhibitor, relief of diarrhea caused by a chemotherapeutic agent; details: Example 368, Topotecan (TP) intravenous injection 10 mg/kg single, 0.5 h before, cycle 10 days;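 note: percent of treated mice whose diarrhea grade fell below chemotherapy-group average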
# Source text: Balb/c mice were fed for 1 week, and then divided into groups. The experiment was divided into a control group, a chemotherapeutic agent group, and an oral administration group of a CDK inhibitor, and an intravenous injection group of a CDK inhibitor, each of which comprised 10 mice, to perform the administration experiment, for which the administration dosage, mode, time and frequency were shown in Table 6. The control group: being injected/intragastrically administered with the same solvent as that used in the CDK inhibitor group (the time was shown in Table 6), and then being injected/intragastrically administered with the same solvent as that used in the chemotherapeutic agent group (the administration mode was shown in Table 6): the chemotherapeutic agent group: being injected/intragastrically administered with the same solvent as that used in the CDK inhibitor group (the time was shown in Table 6), and then being injected/intragastrically administered with the chemotherapeutic agent (the type, administration mode and dosage were shown in Table 6): the oral administration group of the CDK inhibitor: being intragastrically administered with the CDK inhibitor (the time was shown in Table 6), and then being administered with the chemotherapeutic agent (the mode and dosage were shown in Table 6): the intravenous injection group of the CDK inhibitor: being injected with the CDK inhibitor through tail vein (the time was shown in Table 6), and then being administered with the chemotherapeutic agent (the mode and dosage were shown in Table 6).
# as §2
# [4] = test system: Chemotherapeutic agent-caused constipation models of Balb/c mice; experiment: Examples 272-342 (Table 5): oral CDK inhibitor, relief of constipation caused by a chemotherapeutic agent; details: cycle 8 days;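 note: percent of treated mice relieved versus chemotherapy group by feces reduction rate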
# Source text: Construction of mouse animal models: Chemotherapeutic agent-caused constipation models of Balb/c mice were constructed according to the administration mode and frequency of the chemotherapeutic agent as shown in Table 5.
# Balb/c mice were fed for 1 week, and then divided into groups. The experiment was divided into a control group, a chemotherapeutic agent group, and a CDK inhibitor group, each of which comprised 10 mice, to perform the administration experiment, for which the administration dosage, mode, time and frequency were shown in Table 5. The control group: being intragastrically administered with the same solvent as that used in the CDK inhibitor group (the time was shown in Table 5), and then being injected/intragastrically administered with the same solvent as that used in the chemotherapeutic agent group (the administration mode was shown in Table 5): the chemotherapeutic agent group: being intragastrically administered with the same solvent as that used in the CDK inhibitor group (the time was shown in […]), and then being injected/intragastrically administered with the chemotherapeutic agent (the type, administration mode and dosage were shown in Table 5): the CDK inhibitor group: being intragastrically administered with the CDK inhibitor (the time was shown in Table 5), and then being administered with the chemotherapeutic agent (the mode and dosage were shown in Table 5).
# (§3) Feces reduction rate (%)=(the control group−the chemotherapeutic agent group or the CDK inhibitor group)/the control group*100%
# (§4) The feces amount of mice within 3 hours was observed and recorded every day.
# [5] = test system: constipation caused by a chemotherapeutic agent in Balb/c mice; experiment: Examples 406-443 (Table 8): various administration modes of the CDK inhibitor, relief of constipation caused by a chemotherapeutic agent; details: for Relative remission rate of other administration mode / Relative remission rate of oral administration: cycle 8 days; for improvement of constipation by oral administration, intraperitoneal injection, intramuscular injection, local administration: constipation caused by doxorubicin, etoposide, etoposide plus cisplatin, carboplatin, gemcitabine, gemcitabine plus carboplatin, under certain conditions, oral most significant;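 for Relative remission rate of oral administration: percent of treated mice relieved versus chemotherapy group by feces reduction rate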;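 for Relative remission rate of other administration mode: percent of treated mice relieved versus chemotherapy group by feces reduction rate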
# Source text: Balb/c mice were fed for 1 week, and then divided into groups. The experiment was divided into a control group, a chemotherapeutic agent group, CDK inhibitor groups (including an oral administration group of a CDK inhibitor, an intravenous injection group of a CDK inhibitor, an intraperitoneal injection group of a CDK inhibitor, an intramuscular injection group of a CDK inhibitor, a local administration group of a CDK inhibitor), each of which comprised 10 mice, to perform the administration experiment, for which the administration dosage, mode, time and frequency were shown in Table 8. The control group: being administered with the same solvent as that used in the CDK inhibitor group (the time and mode were shown in Table 8), and then being injected/intragastrically administered with the same solvent as that used in the chemotherapeutic agent group (the administration mode was shown in Table 8): the chemotherapeutic agent group: being administered with the same solvent as that used in the CDK inhibitor group (the time and mode were shown in Table 8), and then being injected/intragastrically administered with the chemotherapeutic agent (the type, administration mode and dosage were shown in Table 8): the oral administration group of the CDK inhibitor: being intragastrically administered with the CDK inhibitor (the time was shown in Table 8), and then being administered with the chemotherapeutic agent (the mode and dosage were shown in Table 8): the intravenous injection group of the CDK inhibitor: being injected with the CDK inhibitor through tail vein (the time was shown in Table 8), and then being administered with the chemotherapeutic agent (the mode and dosage were shown in Table 8): the intraperitoneal injection group of the CDK inhibitor: being intraperitoneally injected with the CDK inhibitor (the time was shown in Table 8), and then being administered with the chemotherapeutic agent (the mode and dosage were shown in Table 8): the intramuscular injection group of the CDK inhibitor: being intramuscularly injected with the CDK inhibitor (the time was shown in Table 8), and then being administered with the chemotherapeutic agent (the mode and dosage were shown in Table 8); and the local administration group of the CDK inhibitor: the hair on the abdomen of mice was shaved (about 2 cm*2 cm), being applied with the CDK inhibitor (the time was shown in Table 8), and then being administered with the chemotherapeutic agent (the mode and dosage were shown in Table 8).
# as §3, §4
molecule,measurement,setting,value
CCc1cnn2c(NCc3ccc[n+]([O-])c3)cc(N3CCCC[C@H]3CCO)nc12 [Dinaciclib],Relative remission rate,"[1]; Example 240, 0.5 h before",30%
same,Relative remission rate,"[1]; Example 241, 12 h before",20%
same,Relative remission rate,"[1]; Example 242, 24 h before",0%
same,Relative remission rate (%),"[2]; Example 131, Docetaxel (DTX) intraperitoneal injection 10 mg/kg single, CDK inhibitor oral 40 mg/kg single 0.5 h before, cycle 8 days",10%
same,Relative remission rate (%),"[2]; Example 132, Docetaxel (DTX) intraperitoneal injection 10 mg/kg single, CDK inhibitor oral 40 mg/kg single 1 h before, cycle 8 days",10%
same,Relative remission rate (%),"[2]; Example 133, Docetaxel (DTX) intraperitoneal injection 10 mg/kg single, CDK inhibitor oral 40 mg/kg single 2 h before, cycle 8 days",20%
same,Relative remission rate (%),"[2]; Example 134, Docetaxel (DTX) intraperitoneal injection 10 mg/kg single, CDK inhibitor oral 40 mg/kg single 4 h before, cycle 8 days",20%
same,Relative remission rate (%),"[2]; Example 135, Docetaxel (DTX) intraperitoneal injection 10 mg/kg single, CDK inhibitor oral 40 mg/kg single 6 h before, cycle 8 days",30%
same,Relative remission rate (%),"[2]; Example 136, Docetaxel (DTX) intraperitoneal injection 10 mg/kg single, CDK inhibitor oral 40 mg/kg single 8 h before, cycle 8 days",30%
same,Relative remission rate (%),"[2]; Example 137, Docetaxel (DTX) intraperitoneal injection 10 mg/kg single, CDK inhibitor oral 40 mg/kg single 10 h before, cycle 8 days",30%
same,Relative remission rate (%),"[2]; Example 138, Docetaxel (DTX) intraperitoneal injection 10 mg/kg single, CDK inhibitor oral 40 mg/kg single 12 h before, cycle 8 days",20%
same,Relative remission rate (%),"[2]; Example 139, Docetaxel (DTX) intraperitoneal injection 10 mg/kg single, CDK inhibitor oral 40 mg/kg single 14 h before, cycle 8 days",20%
same,Relative remission rate (%),"[2]; Example 140, Docetaxel (DTX) intraperitoneal injection 10 mg/kg single, CDK inhibitor oral 40 mg/kg single 16 h before, cycle 8 days",40%
same,Relative remission rate (%),"[2]; Example 141, Docetaxel (DTX) intraperitoneal injection 10 mg/kg single, CDK inhibitor oral 40 mg/kg single 18 h before, cycle 8 days",30%
same,Relative remission rate (%),"[2]; Example 142, Docetaxel (DTX) intraperitoneal injection 10 mg/kg single, CDK inhibitor oral 40 mg/kg single 20 h before, cycle 8 days",30%
same,Relative remission rate (%),"[2]; Example 143, Docetaxel (DTX) intraperitoneal injection 10 mg/kg single, CDK inhibitor oral 40 mg/kg single 22 h before, cycle 8 days",20%
same,Relative remission rate (%),"[2]; Example 144, Docetaxel (DTX) intraperitoneal injection 10 mg/kg single, CDK inhibitor oral 40 mg/kg single 24 h before, cycle 8 days",10%
same,Relative remission rate (%),"[2]; Example 145, Docetaxel (DTX) intraperitoneal injection 10 mg/kg single, CDK inhibitor oral 40 mg/kg single 48 h before, cycle 8 days",0%
same,Relative remission rate (%),"[2]; Example 204, Gemcitabine 60 mg/kg and paclitaxel 10 mg/kg intraperitoneal injection single, CDK inhibitor oral 70 mg/kg single, 4 h before, 8 days",30%
same,Relative remission rate,[3]; CDK inhibitor intravenous injection 40 mg/kg single,10%
same,Relative remission rate,[3]; CDK inhibitor oral 40 mg/kg single,20%
CC[C@H](CO)Nc1nc(NCc2ccccc2)c2ncn(C(C)C)c2n1 [Seliciclib],Relative remission rate,"[4]; Example 321, Docetaxel (DTX) oral administration 30 mg/kg single, CDK inhibitor oral 400 mg/kg single, 3 h before",20%
same,Relative remission rate of other administration mode,"[5]; Example 442, Gemcitabine and Carboplatin oral administration 300 (G) 200 (C) mg/kg single, CDK inhibitor local administration 400 mg/kg single, 4 h before",10%
same,Relative remission rate of oral administration,"[5]; Example 442, Gemcitabine and Carboplatin oral administration 300 (G) 200 (C) mg/kg single, CDK inhibitor oral 400 mg/kg single, 4 h before",20%
same,Relative remission rate of other administration mode,"[5]; Example 443, Gemcitabine and Carboplatin oral administration 300 (G) 200 (C) mg/kg single, CDK inhibitor local administration 400 mg/kg single, 8 h before",10%
same,Relative remission rate of oral administration,"[5]; Example 443, Gemcitabine and Carboplatin oral administration 300 (G) 200 (C) mg/kg single, CDK inhibitor oral 400 mg/kg single, 8 h before",20%
same,"improvement of constipation by oral administration, intraperitoneal injection, intramuscular injection, local administration",[5],can significantly improve constipation
same,Relative remission rate (%),"[2]; Example 46, Fluorouracil (5-Fu) intravenous injection 175 mg/kg single, CDK inhibitor oral 250 mg/kg single 2 h before, cycle 10 days",30%
same,Relative remission rate (%),"[2]; Example 118, Irinotecan (CPT-11) intraperitoneal injection 240 mg/kg single, CDK inhibitor oral 250 mg/kg single 6 h before, cycle 7 days",30%
same,Relative remission rate (%),"[2]; Example 195, Gemcitabine 60 mg/kg and paclitaxel 10 mg/kg intravenous injection single, CDK inhibitor oral 400 mg/kg single, 0.5 h before, 8 days",30%
same,Relative remission rate (%),"[2]; Example 199, Gemcitabine 60 mg/kg and paclitaxel 10 mg/kg intravenous injection single, CDK inhibitor oral 250 mg/kg single, 2 h before, 8 days",20%
same,Relative remission rate (%),"[2]; Example 200, Gemcitabine 60 mg/kg and paclitaxel 10 mg/kg intraperitoneal injection single, CDK inhibitor oral 250 mg/kg single, 6 h before, 8 days",40%
Roniciclib,Relative remission rate,"[4]; Example 322, Docetaxel (DTX) intramuscular injection 20 mg/kg single, CDK inhibitor oral 1 mg/kg single, 5 h before",10%
same,Relative remission rate of other administration mode,"[5]; Example 420, Etoposide (Etop1) intravenous injection 100 mg/kg single, CDK inhibitor intraperitoneal injection 100 mg/kg single, 1 h before",10%
same,Relative remission rate of oral administration,"[5]; Example 420, Etoposide (Etop1) intravenous injection 100 mg/kg single, CDK inhibitor oral 1 mg/kg single, 1 h before",20%
same,"improvement of constipation by oral administration, intraperitoneal injection, intramuscular injection, local administration",[5],can significantly improve constipation
same,Relative remission rate (%),"[2]; Example 73, Oxaliplatin intraperitoneal injection 20 mg/kg single, CDK inhibitor oral 10 mg/kg single 6 h before, cycle 8 days",30%
same,Relative remission rate (%),"[2]; Example 117, Irinotecan (CPT-11) intraperitoneal injection 240 mg/kg single, CDK inhibitor oral 10 mg/kg single 6 h before, cycle 7 days",20%
